The solubility is the dissolved amount per volume that the medium holds.

Holding throughout (format): physicochemical
The nature of data set [1]: Solubility in 30% acetonitrile in water (HPLC of filtrate, XRPD of remaining solids). How it is done: The solubility of 9-ING-41 polymorphic forms in 30% Acetonitrile in water was determined using HPLC under the following conditions: • Instrument: Agilent 1260 Infinity Series • Diluent: 30% acetonitrile aqueous solution • Flow rate: 1.5 mL/min • Mobile phase: A: 0.05% TFA in water • B: 0.05% TFA in acetonitrile • Injection volume: […] • Column: XDB-C18, 4.6*50 mm, 1.8 μm • Column Temperature: 40° C. • Detection: 220 nm • Run Time: 8 minutes (2 minutes delay for next injection) • Gradient (T/B %): 0.0/70, 6.0/100, 8.0/100
About 5 mg of 9-ING-41 Form I was added into 2 mL of 30% acetonitrile/70% water (vol/vol). The sample was shaken at 200 rpm in a shaker for 24 h. The vial was visually examined to ensure saturation. 1 mL of the suspension was filtered through a 0.22 µm nylon syringe filter into another clean clear glass vial at 2 hours and at 24 hours. The filtrates were analyzed using HPLC (accurately dilute if necessary) and the remaining solids were analyzed using XRPD.

The nature of data set [2]: Mechanical and pressure effects on crystalline form (XRPD). How it is done:
XRPD analyses were performed using an X-ray diffractometer (Bruker D8 advance) equipped with LynxEye detector. The instrument parameters were listed below. • Scan: 3° (2θ) to 40° (2θ) • Increment: 0.02° (2θ) • Scan speed: 0.3 sec/step • Voltage: 40 KV • Current: 40 mA • Rotation: On • Sample hold: Zero-background sample holder TGA Analysis 9.90 mg of 9-ING-41 Form I was weighed into mortar and ground for 5 min. […] 9-ING-41 Form I was pressed into two tablets. The weight of tablets was 38.9 mg and 36.2 mg, respectively.

A short description of data set [3]: Aqueous solubility study (water or buffers, HPLC of filtrate, XRPD of remaining solids). To be noted: for solubility: shaken 200 rpm 24 h. How it is done: The solubility of 9-ING-41 polymorphic forms in water or buffers were determined using HPLC under the following conditions: • Instrument: Agilent 1260 Infinity Series • Diluent: Acetonitrile • Flow rate: 1.5 mL/min • Mobile phase: A: 0.05% TFA in water • B: 0.05% TFA in Acetonitrile • Injection volume: 1 μL • Column: XDB-C18, 4.6*50 mm, 1.8 μm • Column Temperature: 40° C. • Detection: 220 nm • Run Time: 8 minutes (2 minutes delay for next injection) • Gradient (T/B %): 0.0/70, 6.0/100, 8.0/100 10-30 mg of 9-ING-41 Form I was added to 2 mL of water or a buffer solution buffered at pH=1.2, 4.5, or 6.8. The samples were shaken at 200 rpm in a shaker for 24 h. The sample vials were visually examined to ensure saturation. 1 mL of each suspension was filtered at 24 hours through a 0.22 µm nylon syringe filter into another clean clear glass vial. The filtrate was analyzed using HPLC (accurately dilute if necessary) and the remaining solids were analyzed using XRPD.

A short description of data set [4]: Dynamic vapor sorption (DVS) analysis. To be noted: 80% relative humidity, 25.0±1.0° C. How it is done: DVS analyses were conducted on an IGAsorp (HidenIsochema Ltd.). For an isotherm test, the chamber temperature was maintained by a water bath at constant 25.0±1.0° C.

SMILES strings stand for the structures. ≈ marks a conversion by molar mass, not a printed value.

The compound `Cn1cc(C2=C(c3coc4ccc(F)cc34)C(=O)NC2=O)c2cc3c(cc21)OCO3` [Amorphous 9-ING-41, 3-(5-fluorobenzofuran-3-yl)-4-(5-methyl-5H-[1,3]dioxolo[4,5-f]indol-7-yl)pyrrole-2,5-dione] had a solubility at 30 min in data set [1] (aqueous with cosolvent or surfactant or cyclodextrin, thermodynamic from solid, 30% acetonitrile/70% water (vol/vol), after 30 minutes) of 57 µg/mL (≈ 141 µM).
Regarding `Cn1cc(C2=C(c3coc4ccc(F)cc34)C(=O)NC2=O)c2cc3c(cc21)OCO3` [9-ING-41 Form I, 3-(5-fluoro-1-benzofuran-3-yl)-4-[5-methyl-2H,5H-[1,3]dioxolo[4,5-f]indol-7-yl]-2,5-dihydro-1H-pyrrole-2,5-dione], the “crystalline form after grinding (XRPD)” value in data set [2] (ground in mortar for 5 min) is recorded as “had not changed”. The “crystalline form after pressing into tablets (XRPD)” value in data set [2] (pressed into tablets, then ground into powder) is recorded as “had not changed”. Moreover, the “crystalline form of remaining solids (XRPD)” value in data set [3] (after 24 h in water or pH 1.2, 4.5, 6.8 buffer) was “no change in crystalline form”; in data set [1] (after shaking in 30% acetonitrile/70% water), “no change in crystalline form”. Also, the solubility result in data set [3] (pH 1.2 buffer), in data set [3] (pH 4.5 buffer), in data set [3] (pH 6.8 buffer) and in data set [3] (water) was “poor” throughout. For the same compound, in data set [3] (water or pH 1.2, 4.5, 6.8 buffer, filtrate at 24 hours), the “9-ING-41 in the filtrates by HPLC” value is on record as “could not be detected”. In addition, in data set [4], the “weight gain (DVS)” value is given as “about 0.23 % by weight”. For the same compound, in data set [1] (aqueous with cosolvent or surfactant or cyclodextrin, thermodynamic from solid, 30% acetonitrile/70% water (vol/vol), after 24 hours, read-out: 9-ING-41 in filtrate (solubility) by HPLC), the solubility at 24 h stood at 48 µg/mL (≈ 119 µM). For the same compound, the solubility at 2 h in data set [1] (aqueous with cosolvent or surfactant or cyclodextrin, thermodynamic from solid, 30% acetonitrile/70% water (vol/vol), after two hours, read-out: 9-ING-41 in filtrate (solubility) by HPLC) came out at 46 µg/mL (≈ 114 µM).
